Data on twelve compounds can be found in patent publication US11207325B2, “Triazolopyrimidine compounds and uses thereof” (Novartis AG, priority 2014, dated 2021).

Assay [1] relates to H3K27 methylation in G401 cell. Kind of assay: ELISA (H3K27 methylation) assay. Conditions: Homo sapiens, G-401; ELISA Qualified assay (H3K27 methylation); read-out: (c) IC50 (μM), ELISA Qualified. Format: cell-based. The source says:
ELISA (H3K27 Methylation) Assay
A general note: In an ELISA, binding on a coated surface is turned into a signal by an enzyme label.

The test system of assay [2] is B cell lymphoma cell KARPAS422. Put plainly: Analysis of cell proliferation. Format: cell-based. The note with it: Homo sapiens, KARPAS-422, 336 h; B cell lymphoma cell KARPAS422 after 14 days of treatment; read-out: antiproliferative activities (IC50 values). As for the experimental part: Analysis of Cell Proliferation
B cell lymphoma cell KARPAS422 was cultured using standard cell culture conditions in RPMI-1640 (Invitrogen, cat #11875) supplemented with 15% FBS (Invitrogen, cat #10099-141) in humidified incubator at 37° C., 5% CO2. To assess the effect of PRC2 inhibition on cell proliferation, exponentially growing cells were seeded at a density of 1×10^5 cells/mL in 12-well plate (Corning, cat #CLS3513). After cell seeding, a compound of the present disclosure was added to the cell media (in concentrations ranging from 0 to 100 μM, 3× dilution series). Viable cell numbers were determined every 3-4 days for up to 14 days using Vi-CELL (Beckman Coulter). On days of cell counting, fresh growth media and compound were replenished and cells split back to a density of 1×10^5 cells/mL. Total cell number is expressed as split-adjusted viable cells per mL. The dose response curves and IC50 values were generated using Prism.

The term IC50 denotes the point on the concentration scale where inhibition reaches its midpoint.

For the compound `Cc1cc(-c2cnc(NCc3c(F)ccc4c3CCO4)n3cnnc23)n(C)n1` [Example 1, 8-(1,3-dimethyl-1H-pyrazol-5-yl)-N-((5-fluoro-2,3-dihydrobenzofuran-4-yl)methyl)-[1,2,4]triazolo[4,3-c]pyrimidin-5-amine], the IC50 in assay [1] came out at 0.0009 µM; in assay [2] it was 0.4 nM.

Consider `Cc1ncccc1-c1cnc(NCc2c(F)ccc3c2CCO3)n2cnnc12` [Example 2, N-((5-fluoro-2,3-dihydrobenzofuran-4-yl)methyl)-8-(2-methylpyridin-3-yl)-[1,2,4]triazolo[4,3-c]pyrimidin-5-amine], for which, in assay [2], the 50% inhibitory concentration (IC50) is 3 nM.

Consider `Cc1ncc(-c2cnc(NCc3c(F)ccc4c3CCO4)n3cnnc23)c(C)n1` [Example 3, 8-(2,4-Dimethylpyrimidin-5-yl)-N-((5-fluoro-2,3-dihydrobenzofuran-4-yl)methyl)-[1,2,4]triazolo[4,3-c]pyrimidin-5-amine], for which the IC50 in assay [1] is 0.0034 µM; in assay [2], 0.7 nM.

For the compound `Cc1nn(C(C)C)cc1-c1cnc(NCc2c(F)ccc3c2CCO3)n2cnnc12` [Example 4, N-((5-Fluoro-2,3-dihydrobenzofuran-4-yl)methyl)-8-(1-isopropyl-3-methyl-1H-pyrazol-4-yl)-[1,2,4]triazolo[4,3-c]pyrimidin-5-amine], the IC50 in assay [1] was 0.0021 µM; in assay [2] it was 0.3 nM.

As to `COc1cc(C)c(-c2cnc(NCc3c(F)ccc4c3CCO4)n3cnnc23)cn1` [Example 5, N-((5-fluoro-2,3-dihydrobenzofuran-4-yl)methyl)-8-(6-methoxy-4-methylpyridin-3-yl)-[1,2,4]triazolo[4,3-c]pyrimidin-5-amine], the concentration for half-maximal inhibition (IC50) was 0.0029 µM in assay [1] and 0.8 nM in assay [2].

As for `Cc1nc(C2CC2)ccc1-c1cnc(NCc2c(F)ccc3c2CCO3)n2cnnc12` [Example 6, 8-(6-Cyclopropyl-2-methylpyridin-3-yl)-N-((5-fluoro-2,3-dihydrobenzofuran-4-yl)methyl)-[1,2,4]triazolo[4,3-c]pyrimidin-5-amine], the IC50 in assay [1] turned out to be 0.0038 µM; in assay [2] it was 0.2 nM.

`OCc1ncccc1-c1cnc(NCc2c(F)ccc3c2CCO3)n2cnnc12` [Example 7, (3-(5-(((5-fluoro-2,3-dihydrobenzofuran-4-yl)methyl)amino)-[1,2,4]triazolo[4,3-c]pyrimidin-8-yl)pyridin-2-yl)methanol]: the results for the IC50 in assay [1] and in assay [2] were 0.0052 µM and 3 nM, respectively.

`Cc1nc(C2CC2)ncc1-c1cnc(NCc2c(F)ccc3c2CCO3)n2cnnc12` [Example 8, 8-(2-cyclopropyl-4-methylpyrimidin-5-yl)-N-((5-fluoro-2,3-dihydrobenzofuran-4-yl)methyl)-[1,2,4]triazolo[4,3-c]pyrimidin-5-amine]: the 50% inhibitory concentration (IC50) in assay [1] was 0.0029 µM; in assay [2] it was 0.6 nM.

With `Cc1nc(OC(C)C)ncc1-c1cnc(NCc2c(F)ccc3c2CCO3)n2cnnc12` [Example 9, N-((5-fluoro-2,3-dihydrobenzofuran-4-yl)methyl)-8-(2-isopropoxy-4-methylpyrimidin-5-yl)-[1,2,4]triazolo[4,3-c]pyrimidin-5-amine], the half-maximal inhibitory concentration (IC50) stood at 0.0035 µM in assay [1] and 0.6 nM in assay [2].

`[O-][n+]1cccc(-c2cnc(NCc3c(F)ccc4c3CCO4)n3cnnc23)c1` [Example 10, 3-(5-(((5-fluoro-2,3-dihydrobenzofuran-4-yl)methyl)amino)-[1,2,4]triazolo[4,3-c]pyrimidin-8-yl)pyridine 1-oxide]: the IC50 in assay [1] amounted to 0.001 µM; in assay [2] it was 17.4 nM.

Consider `Cc1ncccc1-c1cnc(NCc2c(F)ccc3occc23)n2cnnc12` [Example 207, N-((5-fluorobenzofuran-4-yl)methyl)-8-(2-methylpyridin-3-yl)-[1,2,4]triazolo[4,3-c]pyrimidin-5-amine], for which the IC50 in assay [1] was found to be 0.0036 µM; in assay [2], 1 nM.

Regarding `Cc1c(-c2cnc(NCc3c(F)ccc4c3C(O)CO4)n3cnnc23)ccc[n+]1[O-]` (stereo not shown) [Example 244, 3-(5-(((5-fluoro-3-hydroxy-2,3-dihydrobenzofuran-4-yl)methyl)amino)-[1,2,4]triazolo[4,3-c]pyrimidin-8-yl)-2-methylpyridine 1-oxide], in assay [1], the IC50 turned out to be 0.241 µM.
